“And” between values parts separate entries of the source, which are not always exact repeats. Identical values can stand only once.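 A five-concentration, 48-hour dose response in 96-well plates underlies each endpoint, interpolated linearly between surrounding concentrations. Here, GI50 denotes the concentration required for 50% inhibition of growth.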 The source made the active and inactive calls. Rule as the data show it: active = GI50 up to about 1.1 µM and inactive = higher.
Experiments:
Assay in all cases: NCI tumour cell line growth inhibition, 48 h
[1] = tested on: UACC-62
[2] = tested on: COLO 205
[3] = tested on: CCRF-CEM
[4] = tested on: SNB-19
[5] = tested on: HT-29
[6] = tested on: Hs-578T
[7] = tested on: HCT-15
[8] = tested on: Malme-3M
[9] = tested on: OVCAR-4
[10] = tested on: HL-60
[11] = tested on: LOX IMVI
[12] = tested on: 786-0
[13] = tested on: SN12C
[14] = tested on: K562
[15] = tested on: OVCAR-5
[16] = tested on: SW-620
[17] = tested on: NCI-H522
[18] = tested on: OVCAR-3
[19] = tested on: A498
[20] = tested on: DU-145
[21] = tested on: IGROV-1
[22] = tested on: SR
[23] = tested on: T47D
[24] = tested on: SF-268
[25] = tested on: RXF 393
[26] = tested on: UO-31
[27] = tested on: SK-MEL-5
[28] = tested on: SNB-75
[29] = tested on: UACC-257
[30] = tested on: NCI-H226
[31] = tested on: MDA-N
[32] = tested on: M14
[33] = tested on: U-251
[34] = tested on: CAKI-1
[35] = tested on: NCI-H23
[36] = tested on: SK-OV-3
[37] = tested on: RPMI-8226
[38] = tested on: NCI-H460
[39] = tested on: ACHN
[40] = tested on: BT-549
[41] = tested on: HCT-116
[42] = tested on: MOLT-4
[43] = tested on: HOP-62
[44] = tested on: HOP-92
[45] = tested on: SF-295
[46] = tested on: MCF7
[47] = tested on: EKVX
[48] = tested on: MDA-MB-435
[49] = tested on: OVCAR-8
[50] = tested on: MDA-MB-231
[51] = tested on: SF-539
[52] = tested on: PC-3
[53] = tested on: HCC 2998
[54] = tested on: NCI/ADR-RES
[55] = tested on: KM12
[56] = tested on: A549
[57] = tested on: SK-MEL-28
[58] = tested on: SK-MEL-2

CC1OC(OC2C(OC(=O)[C@]34CCC(C)(C)C[C@H]3C3=CC[C@@H]5[C@@]6(C)CC[C@H](OC7OC(C(=O)O)C(O)C(O)C7O)C(C)(C)[C@@H]6CC[C@@]5(C)[C@]3(C)C[C@H]4O)OCC(O)C2O)C(O)C(O)C1OC1OCC(O)C(O)C1O (some centres not stated)
GI50 [1]: 18.5 µM (inactive) and 16 µM (inactive) | GI50 [2]: 3.64 µM (inactive) and 2.32 µM (inactive) | GI50 [3]: 17.5 µM (inactive) and 19.9 µM (inactive) | GI50 [4]: 12.6 µM (inactive) and 8.09 µM (inactive) | GI50 [5]: 7.62 µM (inactive) and 5.18 µM (inactive) | GI50 [6]: 19.8 µM (inactive) and 21.3 µM (inactive) | GI50 [7]: 17.1 µM and 17.3 µM | GI50 [8]: 14.2 µM (inactive) and 12 µM (inactive) | GI50 [9]: 17.8 µM (inactive) | GI50 [10]: 8.93 µM (inactive) | GI50 [11]: 15.5 µM (inactive) and 10.7 µM (inactive) | GI50 [12]: 14.8 µM (inactive) and 12.6 µM (inactive) | GI50 [13]: 2.38 µM (inactive) and 4.59 µM (inactive) | GI50 [14]: 16.4 µM (inactive) and 14.6 µM (inactive) | GI50 [15]: 10.5 µM (inactive) and 14.9 µM (inactive) | GI50 [16]: 13 µM (inactive) and 16.3 µM (inactive) | GI50 [17]: 10.2 µM (inactive) and 6.21 µM (inactive) | GI50 [18]: 15.3 µM (inactive) and 17.7 µM (inactive) | GI50 [19]: 2.54 µM (inactive) and 1.72 µM (inactive) | GI50 [20]: 15.3 µM (inactive) and 13.9 µM (inactive) | GI50 [21]: 15.2 µM (inactive) and 13 µM (inactive) | GI50 [22]: 7.55 µM (inactive) and 6.01 µM (inactive) | GI50 [23]: 22.2 µM (inactive) and 11.3 µM (inactive) | GI50 [24]: 11.6 µM (inactive) and 19.3 µM (inactive) | GI50 [25]: 15.7 µM (inactive) and 18.5 µM (inactive) | GI50 [26]: 7.29 µM (inactive) and 11.6 µM (inactive) | GI50 [27]: 16.8 µM (inactive) and 18.9 µM (inactive) | GI50 [28]: 15.9 µM (inactive) and 16.9 µM (inactive) | GI50 [29]: 16.8 µM (inactive) and 16.4 µM (inactive) | GI50 [30]: 4.57 µM (inactive) and 7.19 µM (inactive) | GI50 [31]: 10.6 µM (inactive) and 13.8 µM (inactive) | GI50 [32]: 13.7 µM (inactive) and 8.59 µM (inactive) | GI50 [33]: 10.4 µM (inactive) and 15.3 µM (inactive) | GI50 [34]: 12.7 µM (inactive) and 7.74 µM (inactive) | GI50 [35]: 5.31 µM (inactive) and 6.5 µM (inactive) | GI50 [36]: 16.8 µM (inactive) and 18.9 µM (inactive) | GI50 [37]: 12.1 µM (inactive) and 16.8 µM (inactive) | GI50 [38]: 22 µM (inactive) and 17 µM (inactive) | GI50 [39]: 9.35 µM (inactive) | GI50 [40]: 12.2 µM (inactive) and 13.5 µM (inactive) | GI50 [41]: 14.1 µM (inactive) and 9.89 µM (inactive) | GI50 [42]: 16 µM (inactive) and 27 µM (inactive) | GI50 [43]: 17.7 µM (inactive) and 14.4 µM (inactive) | GI50 [44]: 13.8 µM (inactive) and 11.2 µM (inactive) | GI50 [45]: 10.1 µM (inactive) and 15.5 µM (inactive)

Cc1cn(C(Cc2ccccc2)OCCO)c(=O)[nH]c1=O (configuration not stated)
GI50 [1]: > 100 µM (inactive) | GI50 [2]: > 100 µM (inactive) | GI50 [3]: > 100 µM (inactive) | GI50 [4]: > 100 µM (inactive) | GI50 [5]: > 100 µM (inactive) | GI50 [7]: > 100 µM | GI50 [46]: > 100 µM (inactive) | GI50 [9]: > 100 µM (inactive) | GI50 [11]: > 100 µM (inactive) | GI50 [12]: > 100 µM (inactive) | GI50 [47]: > 100 µM (inactive) | GI50 [48]: > 100 µM (inactive) | GI50 [49]: > 100 µM (inactive) | GI50 [13]: > 100 µM (inactive) | GI50 [14]: > 100 µM (inactive) | GI50 [15]: > 100 µM (inactive) | GI50 [50]: > 100 µM (inactive) | GI50 [16]: > 100 µM (inactive) | GI50 [51]: > 100 µM (inactive) | GI50 [18]: > 100 µM (inactive) | GI50 [19]: > 100 µM (inactive) | GI50 [20]: > 100 µM (inactive) | GI50 [52]: > 100 µM (inactive) | GI50 [21]: > 100 µM (inactive) | GI50 [22]: > 100 µM (inactive) | GI50 [23]: > 100 µM (inactive) | GI50 [53]: > 100 µM (inactive) | GI50 [25]: > 100 µM (inactive) | GI50 [54]: > 100 µM (inactive) | GI50 [26]: > 100 µM (inactive) | GI50 [55]: > 100 µM (inactive) | GI50 [27]: > 100 µM (inactive) | GI50 [28]: > 100 µM (inactive) | GI50 [29]: > 100 µM (inactive) | GI50 [30]: > 100 µM (inactive) | GI50 [56]: > 100 µM (inactive) | GI50 [57]: > 100 µM (inactive) | GI50 [31]: > 100 µM (inactive) | GI50 [32]: > 100 µM (inactive) | GI50 [58]: > 100 µM (inactive) | GI50 [33]: > 100 µM (inactive) | GI50 [34]: > 100 µM (inactive) | GI50 [35]: > 100 µM (inactive) | GI50 [37]: > 100 µM (inactive) | GI50 [38]: > 100 µM (inactive) | GI50 [39]: > 100 µM (inactive) | GI50 [40]: > 100 µM (inactive) | GI50 [41]: > 100 µM (inactive) | GI50 [42]: > 100 µM (inactive) | GI50 [43]: > 100 µM (inactive) | GI50 [44]: > 100 µM (inactive) | GI50 [45]: > 100 µM (inactive)

— ChEMBL document CHEMBL1201862, “PubChem BioAssay data set” (2004)
